Read-outs that look alike come from different tables or passages of the source.
Legend:
[1] = Extracellular (serum) nutrient levels by mass spectrometry (LC-MS, GC-MS, ICP-MS); settings: Level: Serum, person; for Follow-up Nutrient Level: after customized blend; for Actual Nutrient Value (ANV): before customized blend
Excerpt: (§1) In some embodiments, the detection method assesses nutrients both in extracellular plasma and intracellular in RBC and WBC. In some embodiments, the detection method is mass spectroscopy-based. The extracellular and intracellular nutrient levels provide a comprehensive analysis of a subject's nutrient status, reflecting not only the intake levels but also the absorption levels into the cells.
(§2) In some aspects, the extracellular nutrient levels provide a snapshot of the status of nutrient baseline levels at a given time. It is a reflection of a person's diet over a narrow period of time. In contrast, the intracellular levels of nutrients provide information on the absorbed levels of nutrients, thus accounting for factors such as aging, lifestyle, chronic illness, medication, etc. that could interfere with absorption and can change the functional nutritional levels.
(§3) In some embodiments, the detection method is mass spectrometry. In some embodiments, the detection method is Liquid chromatography-mass spectrometry (LC-MS), Gas chromatography-mass spectrometry (GC-MS), or Inductively coupled plasma-mass-spectrometry (ICP-MS). In some embodiments, the detection method is Liquid chromatography-mass spectrometry (LC-MS). In some embodiments, the detection method is Gas chromatography-mass spectrometry (GC-MS). In some embodiments, the detection method is Inductively coupled plasma-mass-spectrometry (ICP-MS).
(§4) In some embodiments, the method provided herein evaluates nutrient levels, both in extracellular serum and inside (intracellular) red blood cells (RBC) and/or white blood cells (WBC). The extracellular nutrient levels provide a snapshot of the status of nutrient baseline levels at a given time. These extracellular nutrient levels are a reflection of a person's diet over a narrow period of time. In contrast, RBCs have a normal lifespan of 120 days, and thus intracellular assessments for nutrients in RBCs can provide information on nutrients over longer periods. Additionally, the intracellular levels of nutrients provide information on the absorbed levels of nutrients, thus accounting for factors such as, but not limited to, aging, lifestyle, chronic illness, and medication, that can interfere with absorption and can change the functional nutritional levels. Moreover, actual nutrient utilization occurs inside the cell owing to cellular metabolic processes. At times, nutrients could be present in serum, but poor cellular uptake may result in cells being devoid of these nutrients, thus giving rise to nutrient deficiencies owing to affected cellular activities. […] As a result, it is important to assess nutrients intracellularly in addition to extracellularly. Thus, the intracellular assessment provides information on cellular uptake and utilization of nutrients at the most fundamental level, enabling understanding of the root cause of nutrient deficiencies.
(§5) The subject individual fills out the health questionnaire (PHQ) which helps establishes factors such as symptoms, complications, comorbidities, and ongoing medications. The subject's blood is drawn and the extracellular serum and intracellular blood cells are tested for nutritional deficiencies via mass spectroscopy (e.g., Liquid chromatography-mass spectrometry (LC-MS), Gas chromatography-mass spectrometry (GC-MS), or Inductively coupled plasma-mass-spectrometry (ICP-MS)).

[2] = NutriPro test: serum, RBC and WBC nutrient values before and after ATB / customized blend; assay type: in vivo, human
Excerpt: The method for providing a nutritional supplement for a subject as disclosed herein is based on a comprehensive panel that assesses intracellular and extracellular levels of at least or up to 41 nutrients. […] Blood analysis using the method disclosed herein tests for nutrient levels in serum, red blood cells (RBCs), and white blood cells (WBCs). Additional genetic testing can assess patients' predispositions toward nutrient deficiencies. Based on the blood and genetic analysis results, a subsequent supplementation diet comprising supplements and food sources can be designed and implemented. The subject can be a human subject.
In some embodiments, the detection method is mass spectrometry.
The ‘NutriPro’ test is used to assess serum (extracellular), RBC, and WBC (intracellular) nutrient values along with genetic testing for any predispositions with could be affecting nutrient values in the body. If required, additional tests such as the gut zoomer, cardiovascular health, thyroid test, kidney function test, liver function test, etc, are carried out. FIG. 1 provides a schematic diagram of the process of the NutriPro test from the individual subject to the creation of customized nutritional blends.
The ATB is given to the individual for nutritional supplementation, and blood testing for nutrients in serum, RBC, and WBC is carried out after 3 or 6 months.
The assessed change is called the VAF.
After testing, the individual takes the ATB or the customized blend for the amount of time indicated.

[3] = human, in vivo
Excerpt: (§6) Improvement in nutrition can be determined by comparing the nutrient values in serum, RBC, and WBCs post-nutritional supplementation to the nutrient values in serum, RBC, and WBCs pre-nutritional supplementation. Based on the improvement, the change in the nutrient levels can be attributed to the per milligram dosage of the supplemented nutrients. The assessed nutritional change is the “Vibrant Absorption factor (VAF (see Equation (1) below). The VAF can be used to determine the subject's utilization of the supplemented nutrients, as determined by the difference in extracellular and intracellular nutrient values before and after supplementation. Based on the subject's utility or absorption of the nutrients, the dosage amount of the nutrient needed to be supplemented or increased to effect change of the subject's nutrient values into the optimum nutrient zone can be assessed. In various embodiments, the VAF is determined by administering a pre-determined formulation, referred to herein as the Absorption Testing Blend.
(§7) Next, the ATB is administered to the individual for a predefined period at step 320a, after which nutrient levels and the genetic nutrient profile are re-evaluated, to obtain the post-supplementation biomarker values at step 330.
(§8) This includes determining the VAF based on the difference between post- and pre-supplementation biomarker values, which is divided by the ATB dosage.
(§9) The assessed change is called the VAF. The VAF is used to understand how the individual's body is utilizing these nutrients, depending on the difference in extracellular and intracellular nutrient values before and after supplementation. Based on the body's utility or absorption of the nutrients, the amount of nutrients needed to be supplemented to alter the individual's nutrient values into the optimum nutrient zone is understood. The VAF calculations help in determining the appropriate dosages of nutrients required in the ‘customized blend.’

[4] = Vibrant Absorption Factor (VAF): difference of post- and pre-supplementation nutrient values divided by ATB dosage
Excerpt: as §6, §7, §8, §9

[5] = cited from earlier work
[6] = Zone Approach: nutrient zone (Zone 1-5), target nutrient zone and follow-up zone; assay type: in vivo, human; settings: Example 5: person, Zone Approach, CB followed for three months
Excerpt: The second exemplary approach includes determining nutrient zones, and thus is referred to as the “Zone Approach.” According to some embodiments, the nutrient reference range for individuals can be divided into a number of zones, each indicating a nutrient wellness level. […] In some embodiments, for a given nutrient, each zone is associated with a specific multiplication factor, which can be used to determine the appropriate dosage for the CB. A few exemplary methods following this Zone Approach are further described hereinafter. […] Based on the assessment results, the current zone for each nutrient is determined at step 420a. In some embodiments, the genetic predispositions and cellular levels may influence the determination of the overall zone for a nutrient. […] This adjustment accounts for the impact of genetic polymorphisms and suboptimal cellular levels, each reducing the nutrient's zone by one or more zones. Therefore, this approach takes one or more of cellular and serum nutrient levels, along with their nutrient genetic profile into consideration to determine a given nutrient's overall zone. In the next, the Target Nutrient Zone (TNZ) to which the individual's each nutrient level is to be optimized is determined at step 430. […] In some embodiments, the determined TNZ is used to determine the multiplication factor used to adjust the starting dosage at step 440a, resulting in the CB dosage for each nutrient. In various embodiments, the multiplication factor is a fixed constant value, previously determined for a nutrient when moving from a first zone to a second zone. […] At step 450a, the CB with the determined nutrient dosages is administered to the individual for a predefined period. In some embodiments, a follow-up test is periodically conducted at step 460, to monitor the progress towards the target nutrient levels during the predefined period, for example, to check whether a target zone is reached or not for a given nutrient. In some embodiments, based on the results from the follow-up tests, it is further determined whether the dosage of the CB for a nutrient requires adjustment. If the adjustment is necessary, appropriate modification is made to the CB, for example, by increasing the TNZ to increase the nutrient levels. The modified CB is administered to the individual, and a reassessment is conducted again. In some embodiments, the personalized dosage of the nutritional supplement in the CB is modified as above after the at least one, two, three, four, five, six, seven, eight, nine, ten, or more repeats.

[7] = in vivo
Excerpt: as §1, §2, §3, §4, §5

[8] = person two, serum, after customized blend
[9] = person one, cells, after customized blend
[10] = person two, cells, after customized blend
[11] = person one, serum, after customized blend
[12] = person three, serum, after customized blend
[13] = person three, serum, before customized blend

With `[K+]` [Potassium] the “Follow-up Nutrient Level” value [1] was 3.4 mmol/L and the “Actual Nutrient Value (ANV)” value [1] was 2.8 mmol/L.

In the case of `[Se]` [Selenium], the “Follow-up Biomarker level” value ([2]; female, human, in vivo) is reported as 267 ng/mL, the Post-test biomarker level ([2]; female, human, in vivo) is reported as 122 ng/mL and the Pre-test biomarker level ([2]; female, human, in vivo) is reported as 105 ng/mL. The “Actual Nutrient Value (ANV)” value ([2]; male, human, in vivo) was 190 ng/mL, the “Follow-up Biomarker level” value ([2]; male, human, in vivo) was 259 ng/mL and the “Follow-up Nutrient Level” value ([2]; male, human, in vivo) was 267 ng/mL. For the same compound, the Post-test biomarker level ([2]; male, human, in vivo) was 167 ng/mL, the Pre-test biomarker level ([2]; male, human, in vivo) was 140 ng/mL and the VAF ([3]; female) was 2.267. The VAF ([3]; male) was 3.6.

For `CC(C)(CO)[C@@H](O)C(=O)NCCC(=O)O` [Vitamin B5], the Post-test biomarker level ([2]; person two, serum, after ATB) was 23.5 ng/mL, the “Follow-up Biomarker level” value [2, 8] was 311 ng/mL and the Pre-test biomarker level ([2]; person two, serum, before ATB) was 14.4 ng/mL. For the same compound, the “Follow-up Nutrient Level” value [1] was 14.4 µg/L, the “Actual Nutrient Value (ANV)” value [1] was 5.4 µg/L and the VAF ([4]; person two, serum) was 18.2.

For `O=C1O[C@H]([C@@H](O)CO)C(O)=C1O` [Vitamin C], the Post-test biomarker level ([2]; person one, cells, after ATB) was 1.1 pg/MM WBC, the “Follow-up Biomarker level” value [2, 9] was 9.2 pg/MM WBC and the Pre-test biomarker level ([2]; person one, cells, before ATB) was 0.05 pg/MM WBC. For the same compound, the Post-test biomarker level ([2]; person two, cells, after ATB) was 1.1 pg/MM WBC, the “Follow-up Biomarker level” value [2, 10] was 8.3 pg/MM WBC and the Pre-test biomarker level ([2]; person two, cells, before ATB) was 0.1 pg/MM WBC. For the same compound, the “Follow-up Nutrient Level” value [1] was 2300 µg/L, the “Actual Nutrient Value (ANV)” value [1] was 1000 µg/L and the VAF ([4]; person one, cells) was 0.07. It also gave a VAF ([4]; person two, cells) of 0.06667.

In the case of `C=C1CC[C@H](O)C/C1=C/C=C1\CCC[C@]2(C)[C@@H]([C@H](C)CCCC(C)C)CC[C@@H]12` [Vitamin D3], the Post-test biomarker level ([2]; person one, cells, after ATB) is reported as 18.9 pg/MM WBC, the “Follow-up Biomarker level” value [2, 9] is reported as 212 pg/MM WBC and the Pre-test biomarker level ([2]; person one, cells, before ATB) is reported as 12.2 pg/MM WBC. The Post-test biomarker level ([2]; person one, serum, after ATB) was 2.3 ng/mL, the “Follow-up Biomarker level” value [2, 11] was 8.7 ng/mL and the Pre-test biomarker level ([2]; person one, serum, before ATB) was 0.5 ng/mL. For the same compound, the Post-test biomarker level ([2]; person two, cells, after ATB) was 18.9 pg/MM WBC, the “Follow-up Biomarker level” value [2, 10] was 221 pg/MM WBC and the Pre-test biomarker level ([2]; person two, cells, before ATB) was 12.2 pg/MM WBC. The “Follow-up Nutrient Level” value [1] was 0.72 µg/L, the “Actual Nutrient Value (ANV)” value [1] was 0.1 µg/L and the VAF ([4]; person one, cells) was 0.067. It also gave a VAF ([4]; person one, serum) of 0.018 and a VAF ([4]; person two, cells) of 0.067.

In the case of `[Zn]` [Zinc], the Post-test biomarker level ([2]; person one, cells, after ATB) is reported as 4.8 ng/MM WBC, the “Follow-up Biomarker level” value [2, 9] is reported as 14.1 ng/MM WBC and the Pre-test biomarker level ([2]; person one, cells, before ATB) is reported as 2.8 ng/MM WBC. For the same compound, the “Follow-up Nutrient Level” value [2, 12] was 1550 ng/mL, the “Actual Nutrient Value (ANV)” value [2, 13] was 500 ng/mL and the Post-test biomarker level ([2]; person two, level: Questionnaire, after ATB) was 1100 ng/mL. The “Follow-up Biomarker level” value ([2]; person two, level: Questionnaire, after customized blend) was 1470 ng/mL, the Pre-test biomarker level ([2]; person two, level: Questionnaire, before ATB) was 750 ng/mL and the UTL ([5]; Table 18, person one) was 40 mg/day. For the same compound, the UTL ([5]; Table 19, person two) was 40 mg/day, the UTL ([5]; Table 20, person three) was 40 mg/day and the VAF ([4]; person one, cells) was 1.333. For the same compound, the VAF ([4]; person two, level: Questionnaire) was 0.2333.

For `Cc1ncc(COP(=O)(O)O)c(C=O)c1O` [vitamin B6, Pyridoxal 5-Phosphate], the “Actual Nutrient Value (ANV)” value ([2]; in vivo) was 130 ng/mL, the “Follow-up Nutrient Level” value ([2]; in vivo) was 401 ng/mL and the “change of nutrient level at follow-up testing” value [6] was “moderately increased”. The “nutrient zone at follow-up testing” value [6] was “Zone 2”, the “Actual Nutrient Value (ANV)” value [7] was 0.5 ng/mL and the “Follow-up Nutrient Level” value [7] was 0.9 ng/mL.

In the case of Vitamin A, the “Follow-up Nutrient Level” value ([2]; person three, cells, after customized blend) is reported as 14.4 pg/MM WBC, the “Actual Nutrient Value (ANV)” value ([2]; person three, cells, before customized blend) is reported as 0.4 pg/MM WBC and the “Follow-up Nutrient Level” value [2, 12] is reported as 1280 ng/mL. The “Actual Nutrient Value (ANV)” value [2, 13] was 350 ng/mL, the Post-test biomarker level ([2]; person two, cells, after ATB) was 2.1 pg/MM WBC and the “Follow-up Biomarker level” value [2, 10] was 14.5 pg/MM WBC. The Pre-test biomarker level ([2]; person two, cells, before ATB) was 0.2 pg/MM WBC, the Post-test biomarker level ([2]; person two, serum, after ATB) was 470 ng/mL and the “Follow-up Biomarker level” value [2, 8] was 1290 ng/mL. For the same compound, the Pre-test biomarker level ([2]; person two, serum, before ATB) was 220 ng/mL, the UTL ([5]; Table 19, person two) was 10,000 IU/day and the UTL ([5]; Table 20, person three) was 10,000 IU/day. It also gave a VAF ([4]; person two, cells) of 0.0019 and a VAF ([4]; person two, serum) of 0.025.

In the case of Vitamin E, the Post-test biomarker level ([2]; person one, serum, after ATB) is reported as 18200 ng/mL, the “Follow-up Biomarker level” value [2, 11] is reported as 36500 ng/mL and the Pre-test biomarker level ([2]; person one, serum, before ATB) is reported as 5500 ng/mL. The Post-test biomarker level ([2]; person two, serum, after ATB) was 17800 ng/mL, the “Follow-up Biomarker level” value [2, 8] was 35400 ng/mL and the Pre-test biomarker level ([2]; person two, serum, before ATB) was 3200 ng/mL. The “Follow-up Nutrient Level” value [1] was 5400 µg/L, the “Actual Nutrient Value (ANV)” value [1] was 4200 µg/L and the VAF ([4]; person one, serum) was 4.233. The VAF ([4]; person two, serum) was 4.867.
